Results published in publication PMC11643024 (bioRxiv, 2024).

System: H1975-OR xenografts
Assay: H1975-OR xenograft tumor growth
Format: in vivo, mice
Conditions: osimertinib p.o. 5 mg/kg daily, NGI-189 i.p. 10 mg/kg every other day

C=CC(=O)Nc1cc(Nc2nccc(-c3cn(C)c4ccccc34)n2)c(OC)cc1N(C)CCN(C)C [osimertinib]
tumor response: did not respond
